In patent US9204653B2, “5-fluoro pyrimidine derivatives” (DOW AGROSCIENCES LLC, priority 2008, dated 2015):
Where two headings read alike, the source gives them in different places.

Legend:
[1] = tested on: Mycosphaerella graminicola; Anamorph: Septoria tritici; Bayer Code SEPTTR; experiment: Leaf blotch of wheat, foliar fungicide treatment, one day protectant (1DP) or three day curative (3DC); type: in vivo, Septoria tritici on wheat plants (variety Yuma); conditions: Zymoseptoria tritici
[2] = tested on: Cercospora beticola; Bayer Code CERCBE; experiment: Leaf spot of sugar beets; type: in vivo, Cercospora beticola on sugar beets (variety HH-88); conditions: 24 h, % disease control rating, one day protectant; for pest or weed control at 25 ppm: read-out: CERCBE 1 DP 25 ppm; for pest or weed control at 75 ppm: read-out: CERCBE 1 DP 75 ppm
[3] = tested on: Venturia inaequalis; Bayer Code VENTIN; experiment: Apple scab; type: in vivo; conditions: 24 h, % disease control rating, one day protectant; for pest or weed control at 25 ppm: read-out: VENTIN 1 DP 25 ppm; for pest or weed control at 75 ppm: read-out: VENTIN 1 DP 75 ppm
[4] = 24 h, one day protectant (1DP), rating of percent disease control, read-out: SETTTR 1DP 25 ppm
[5] = 24 h, one day protectant (1DP), rating of percent disease control, read-out: SEPTTR 1DP 100 ppm
[6] = 72 h, three day curative (3DC), rating of percent disease control, read-out: SEPTTR 3DC 25 ppm
[7] = 72 h, three day curative (3DC), rating of percent disease control, read-out: SEPTTR 3DC 100 ppm
[8] = 24 h, one day protectant (1DP), percent disease control rating, read-out: SETTTR 1DP 25 ppm
[9] = 24 h, one day protectant (1DP), percent disease control rating, read-out: SEPTTR 1DP 100 ppm
[10] = 72 h, three day curative (3DC), percent disease control rating, read-out: SEPTTR 3DC 25 ppm
[11] = 72 h, three day curative (3DC), percent disease control rating, read-out: SEPTTR 3DC 100 ppm
[12] = 24 h, one day protectant, rating of percent disease control, read-out: SETTTR 1DP 25 ppm
[13] = 24 h, one day protectant, rating of percent disease control, read-out: SEPTTR 1DP 100 ppm
[14] = 72 h, three day curative, rating of percent disease control, read-out: SEPTTR 3DC 25 ppm
[15] = 72 h, three day curative, rating of percent disease control, read-out: SEPTTR 3DC 100 ppm

SMILES | pest or weed control at 25 ppm [1, 4] | pest or weed control at 100 ppm [1, 5] | pest or weed control at 25 ppm [1, 6] | pest or weed control at 100 ppm [1, 7] | pest or weed control at 25 ppm [2] | pest or weed control at 75 ppm [2] | pest or weed control at 25 ppm [3] | pest or weed control at 75 ppm [3] | pest or weed control at 25 ppm [1, 8] | pest or weed control at 100 ppm [1, 9] | pest or weed control at 25 ppm [1, 10] | pest or weed control at 100 ppm [1, 11] | pest or weed control at 25 ppm [1, 12] | pest or weed control at 100 ppm [1, 13] | pest or weed control at 25 ppm [1, 14] | pest or weed control at 100 ppm [1, 15]
CO/N=C\Nc1nc(OCc2ccc(F)cc2)ncc1F [Compound 739] | 76 to 100% | 76 to 100% | 76 to 100% | 76 to 100% | 0 to 25% | 0 to 25% | 26 to 50% | 51 to 75% |  |  |  |  |  |  |  | 
Nc1nc(OCc2cccs2)ncc1F [Compound 5, 5-Fluoro-2-(thiophen-2-ylmethoxy)-pyrimidin-4-ylamine] |  |  |  |  |  |  | 76 to 100% | 76 to 100% | 76 to 100% | 76 to 100% | 76 to 100% | 76 to 100% |  |  |  | 
Fc1ccc(COc2ccc(F)c(NC(=S)Nc3ccccc3F)c2)cc1 [Compound 135] |  |  |  |  | 26 to 50% | 26 to 50% | 51 to 75% | 51 to 75% | 76 to 100% | 76 to 100% | 51 to 75% | 76 to 100% |  |  |  | 
COc1cccc(COc2ncc(F)c(NCO)n2)c1 [Compound 741] | 26 to 50% | 76 to 100% | 76 to 100% | 76 to 100% | 0 to 25% | 0 to 25% | 51 to 75% | 76 to 100% |  |  |  |  |  |  |  | 
Nc1nc(OCc2ccccc2N2CCOCC2)ncc1F [Compound 342] | 76 to 100% | 76 to 100% | 76 to 100% | 76 to 100% | 26 to 50% | 76 to 100% | 76 to 100% | 76 to 100% |  |  |  |  |  |  |  | 
COc1ccc(Oc2ncc(F)c(NC(C)=O)n2)cc1 [Compound 649] |  |  |  |  | 0 to 25% | 0 to 25% | 26 to 50% | 26 to 50% |  |  |  |  | 0 to 25% | 26 to 50% | 0 to 25% | 76 to 100%
CCCCCCOc1ncc(F)c(N)n1 [Compound 137] |  |  |  |  | 0 to 25% | 0 to 25% | 0 to 25% | 76 to 100% | 26 to 50% | 76 to 100% | 26 to 50% | 76 to 100% |  |  |  | 
Nc1nc(OCc2cnc(Cl)c(Cl)c2)ncc1F [Compound 582] |  |  |  |  | 51 to 75% | 51 to 75% | 76 to 100% | 76 to 100% |  |  |  |  | 76 to 100% | 76 to 100% | 76 to 100% | 76 to 100%
Cc1oc(-c2ccccc2)cc1COc1ncc(F)c(N)n1 [Compound 251] | 76 to 100% | 76 to 100% | 76 to 100% | 76 to 100% | 0 to 25% | 51 to 75% | 76 to 100% | 76 to 100% |  |  |  |  |  |  |  | 
CN(C)/C=N/c1nc(OCc2ccn(C)n2)ncc1F [Compound 730] |  |  |  |  | 26 to 50% | 26 to 50% | 51 to 75% | 51 to 75% |  |  |  |  | 76 to 100% | 76 to 100% | 76 to 100% | 76 to 100%
Cc1cc(C)c(COc2ncc(F)c(/N=C/N(C)C)n2)c(C)c1 [Compound 347] | 76 to 100% | 76 to 100% | 76 to 100% | 76 to 100% |  |  | 76 to 100% | 26 to 50% |  |  |  |  |  |  |  | 
CN(C)/C=N/c1nc(OCc2ccccc2)ncc1F [Compound 209] | 76 to 100% | 76 to 100% | 76 to 100% | 76 to 100% |  |  | 51 to 75% | 76 to 100% |  |  |  |  |  |  |  | 
Cc1ccc(COc2ncc(F)c(/N=C/N(C)C)n2)cc1 [Compound 469] | 76 to 100% | 76 to 100% | 76 to 100% | 76 to 100% |  |  | 51 to 75% | 76 to 100% |  |  |  |  |  |  |  | 
Cc1ccccc1C(C)Oc1ncc(F)c(N)n1 (stereo not drawn) [Compound 313] | 76 to 100% | 76 to 100% | 76 to 100% | 76 to 100% |  |  | 26 to 50% | 51 to 75% |  |  |  |  |  |  |  | 
CCOC(=O)COc1ncc(F)c(N)n1 [Compound 221] |  |  |  |  | 26 to 50% | 51 to 75% | 0 to 25% | 26 to 50% |  |  |  |  |  |  |  | 
CN(C)/C=N/c1nc(OCc2ccc(F)cc2)ncc1F [Compound 20, N-[5-Fluoro-2-(4-fluorobenzyloxy)pyrimidin-4-yl]-N,N dimethyl-formamidine] |  |  |  |  |  |  | 51 to 75% | 76 to 100% | 76 to 100% | 76 to 100% | 76 to 100% | 76 to 100% |  |  |  | 
Nc1nc(OCc2ccccc2)ncc1F [Compound 46] |  |  |  |  |  |  | 76 to 100% | 76 to 100% | 76 to 100% | 76 to 100% | 76 to 100% | 76 to 100% |  |  |  | 
Cc1cc(C)c(COc2ncc(F)c(N)n2)c(C)c1 [Compound 510] | 51 to 75% | 76 to 100% | 51 to 75% | 76 to 100% |  |  | 76 to 100% | 76 to 100% |  |  |  |  |  |  |  | 
COc1ccc(COc2ncc(F)c(N)n2)cc1 [Compound 734] | 76 to 100% | 76 to 100% | 76 to 100% | 76 to 100% |  |  | 76 to 100% | 76 to 100% |  |  |  |  |  |  |  | 
Nc1nc(OCc2cccc(F)c2)ncc1F [Compound 236] | 76 to 100% | 76 to 100% | 76 to 100% | 76 to 100% |  |  | 76 to 100% | 76 to 100% |  |  |  |  |  |  |  | 
Nc1nc(OCc2cc3ccccc3s2)ncc1F [Compound 345] | 76 to 100% | 76 to 100% | 76 to 100% | 76 to 100% |  |  | 51 to 75% | 76 to 100% |  |  |  |  |  |  |  | 
COc1cccc(COc2ncc(F)c(N)n2)c1 [Compound 35] |  |  |  |  |  |  | 76 to 100% | 76 to 100% | 76 to 100% | 76 to 100% | 76 to 100% | 76 to 100% |  |  |  | 
CC(Oc1ncc(F)c(N)n1)c1ccc(F)cc1 (stereo not drawn) [Compound 3, 5-Fluoro-2-[1-(4-fluorophenyl)ethoxy]pyrimidin-4-ylamine] |  |  |  |  |  |  | 0 to 25% | 76 to 100% | 76 to 100% | 76 to 100% | 76 to 100% | 76 to 100% |  |  |  | 
COc1cccc(COc2ncc(F)c(N(C)N)n2)c1 [Compound 608] |  |  |  |  |  |  |  |  |  |  |  |  | 51 to 75% | 76 to 100% | 51 to 75% | 76 to 100%
CCCNC(=S)Nc1nc(OCc2cccc(C#N)c2)ncc1F [Compound 706] |  |  |  |  |  |  |  |  |  |  |  |  | 0 to 25% | 76 to 100% | 0 to 25% | 51 to 75%
CN1CCCC/C1=N\c1nc(OCc2cccs2)ncc1F [Compound 530] | 76 to 100% | 76 to 100% | 51 to 75% | 76 to 100% |  |  |  |  |  |  |  |  |  |  |  | 
O=[N+]([O-])c1ccccc1NNc1nc(OCc2ccc(Cl)c(Cl)c2)ncc1F [Compound 283] | 51 to 75% | 76 to 100% | 0 to 25% | 26 to 50% |  |  |  |  |  |  |  |  |  |  |  | 
COc1ccc(COc2ncc(F)c(NCc3ccccc3F)n2)cc1 [Compound 249] | 26 to 50% | 76 to 100% | 26 to 50% | 51 to 75% |  |  |  |  |  |  |  |  |  |  |  | 
